From publication PMC8955938, “c-Myc Protein Level Affected by Unsymmetrical Bisacridines Influences Apoptosis and Senescence Induced in HCT116 Colorectal and H460 Lung Cancer Cells” (International Journal of Molecular Sciences, 2022)
“And” between values parts separate entries of the source, which are not always exact repeats. Identical values can stand only once.

Tests used:
Type in all cases: cell-based, human
H460 cells [1] = test: Mitochondrial transmembrane potential (JC-1), H460; conditions: H460, IC90 doses, 120 h
Procedure: (§1) Changes in the mitochondrial membrane potential (ΔΨm) were analyzed by flow cytometry using 5,5′,6,6′-tetrachloro-1,1′,3,3′-tetraethylbenzimidazolyl-carbocyanine iodide, JC-1 (BD Biosciences, San Jose, CA, USA) according to manufacturer’s specification. Briefly, after treatment, HCT116 and H460 cells (1 × 10^6) were trypsinized, pelleted, resuspended in media and stained with JC-1 for 15 min at 37 °C. After staining, cells were washed twice with assay buffer and analyzed by flow cytometry with FACS Accuri C6 (BD, San Jose, CA, USA). The loss of ΔΨm was monitored based on the decrease in JC-1 red fluorescence concurrent with the increase in green fluorescence.

HCT116 cells [2] = test: Mitochondrial transmembrane potential (JC-1), HCT116; conditions: HCT116, IC90 doses, 120 h
Procedure: as §1

HCT116 cells [3] = test: Annexin V/PI dual staining, HCT116; conditions: HCT116, IC90 doses, 120 h
Procedure: Annexin V–FITC binding was performed with an Annexin-V Fluos Staining kit (BD Biosciences, San Jose, CA, USA) according to manufacturer’s protocol. Briefly, after drug treatment, HCT116 and H460 cells (1 × 10^6) were trypsinized, washed twice with ice-cold PBS, pelleted and resuspended in 100 µL of binding buffer containing Annexin-V–FITC and PI. Cells were incubated for 15 min at room temperature in the dark, then diluted with 400 µL of binding buffer and analyzed by flow cytometry with FACS Accuri C6 (BD, San Jose, CA, USA). Cells with low FITC and PI fluorescence were considered viable. Cells that presented high FITC fluorescence but low PI fluorescence were regarded as early apoptotic. Late apoptotic cells presented high FITC and PI fluorescence. Necrotic cells had low FITC fluorescence and high PI fluorescence.

[4] = tested on: KRAS gene expression in H460 cells; test: RT-PCR KRAS expression in H460; conditions: H460, IC90 doses, with time of incubation up to 120 h
Procedure: HCT116, H460, CCD 841 CoN and MRC-5 cells after treatment with UAs were collected, washed twice with ice-cold PBS and resuspended in […] of PBS. mRNA was isolated using High Pure RNA Isolation Kit according to the manufacturer’s instructions (Roche, Basel, Switzerland). Briefly, cells were lysed in lysis-binding buffer and transferred to a filter tube. Contaminating DNA was removed by 15 min incubation of the filter tube with DNase I solution. The filter tube was washed once with buffer I and twice with buffer II, and after centrifugation, total RNA was eluted using the elution buffer. RNA concentration was determined by NanoDrop One (Thermo Scientific); 1 µg of RNA was reverse transcribed using Transcriptor First Strand cDNA Synthesis Kit according to the manufacturer’s instructions (Roche) in 20 µL of reaction containing 1 µg of RNA, […] anchored-oligo(dT)18Primer, 8 mM MgCl2, 20 U of Protector RNase Inhibitor, deoxynucleotide mix (1 mM each) and 22 U of Transcriptor Reverse Transcriptase. The reverse transcription reaction was carried out for 30 min at 55 °C and stopped by heating to 85 °C for 5 min and placing on ice. The cDNA solution was stored at −20 °C until use. Real-time polymerase chain reaction (PCR) was performed on 2 µL of cDNA using 0.2 µM forward and reverse primers on LightCycler® 480 using LightCycler® 480 SYBR Green I Master according to manufacturer’s instructions (Roche). Primers were designed using BLAST website. Their efficiency was checked, and they were ordered from Genomed (Warsaw, Poland). The sequences of primers were as follows: MYC set 1 forward primer, […]; MYC set 1 reverse primer, […]; MYC set 2 forward primer, […]; MYC set 2 reverse primer, […]; KRAS forward primer, […]; KRAS reverse primer, […]; reference gene, GAPDH forward primer ACCCACTCCTCCACCTTTG; and GAPDH reverse primer, CTCTTGTGCTCTTGCTGGG. Cycling conditions were as follows: 1 cycle for 7 min at 95 °C (preincubation), 45 cycles of amplification: 10 s at 95 °C (denaturation), 20 s at 62 °C (annealing), 30 s at 72 °C (extension), 1 cycle for obtaining melting curve and 1 cycle for 10 s at 40 °C (cooling). The results were standardized to the reference gene GADPH. The relative expression level of MYC and KRAS was quantified using comparative method […]. The results were obtained from three independent experiments, each of which was analyzed at least twice.

H460 cells [5] = test: MTT cell growth inhibition assay, H460
Procedure: (§2) To assess cell viability, the MTT assay was used. HCT116, H460, CCD 841 CoN and MRC-5 cells (20,000/well and 50,000/well for cancer and normal cells, respectively) were seeded in 24-well plates, and the following UAs were added at concentrations up to 10 μM: C-2028, C-2041, C-2045 and C-2053. Stock solutions (10 mM) were prepared in sterile water, as well as dilutions, also in water. After 72 h, 3-(4, 5-dimethylthiazol-2-yl)-2,5-diphenyltetrazolium bromide (MTT; 800 μg/well) was added for 3 h, then the formazan crystals were dissolved in DMSO, and absorbance was read at 540 nm. Each point was conducted at least 4 times, and data are expressed relative to controls. The concentration of the drug required to inhibit cells growth by 50 (IC50), 80 (IC80) and 90% (IC90) compared to untreated control cells was determined from the curves plotting survival as a function of dose.

[6] = tested on: active caspase-3 in H460 cells; test: Active caspase-3 flow cytometry, H460; conditions: H460, IC90 doses, 120 h
Procedure: Caspase-3 activity was determined using Alexa Fluor 647-conjugated anti-active caspase-3 antibody (BD Biosciences, San Diego, CA, USA) according to the manufacturer’s instructions. Briefly, HCT116 and H460 cells (1 × 10^6) were trypsinized, pelleted, washed twice with ice-cold PBS and fixed in Fixation Buffer for 20 min on ice. After fixation, cells were rinsed twice with Perm Wash Buffer, stained with Alexa Fluor 647-conjugated anti-active caspase-3 antibody for 30 min, rinsed with Perm Wash Buffer and analyzed by flow cytometry with FACS Accuri C6 (BD, San Jose, CA, USA).

HCT116 cells [7] = test: MTT cell growth inhibition assay, HCT116; conditions: HCT116, 72 h
Procedure: as §2

SMILES | cells with decreased mitochondrial transmembrane potential (ΔΨm) (H460 cells [1]) [%] | cells with decreased mitochondrial transmembrane potential (ΔΨm) (HCT116 cells [2]) | annexin V positive cells (early and late apoptotic) (HCT116 cells [3]) | relative amount of KRAS mRNA [4] | IC50 (H460 cells [5]; H460, 72 h) [µM] | IC90 (H460 cells [5]; H460, 72 h) [µM] | IC50 (H460 cells [5]; Homo sapiens, NCI-H460, 72 h) [µM] | IC90 (H460 cells [5]; Homo sapiens, NCI-H460, 72 h) [µM] | cells with active caspase-3 [6] [%] | IC50 (HCT116 cells [7]) [µM] | IC90 (HCT116 cells [7]) [µM] | IC50 (HCT116 cells [7]; Homo sapiens, HCT-116, 72 h) [µM] | IC90 (HCT116 cells [7]; Homo sapiens, HCT-116, 72 h) [µM] | cells with decreased mitochondrial transmembrane potential (ΔΨm) (HCT116 cells [2]; listed as C-1041) [%]
CN(CCCNc1c2ccccc2nc2cccc([N+](=O)[O-])c12)CCCNc1ccc2ncn3c4ccccc4c(=O)c1c23 [Compound C-2028] | 44.3 | 34.3% and 30% | 26.1% | remained almost at the same level | 0.016 ± 0.002 | 0.046 ± 0.004 | ≤ 0.016 | ≤ 0.05 | 44.9 | 0.01 ± 0.001 | 0.044 ± 0.005 | ≤ 0.016 | ≤ 0.05 | 
O=c1c2ccccc2n2cnc3ccc(NCCCN4CCN(CCCNc5c6ccccc6nc6cccc([N+](=O)[O-])c56)CC4)c1c32 [Compound C-2041] | 46.8 | around 70% | approximately 43% | remained almost at the same level | 0.015 ± 0.002 | 0.046 ± 0.005 | ≤ 0.016 | ≤ 0.05 | 35.5 | 0.008 ± 0.002 | 0.049 ± 0.005 | ≤ 0.016 | ≤ 0.05 | 63.0
Cc1ccc([N+](=O)[O-])c2c(NCCCN(C)CCCNc3ccc4ncn5c6ccc(O)cc6c(=O)c3c45)c3ccccc3nc12 [Compound C-2045] | 62.5 | 30.9% and 30% | ~27.8% | around 1.5 |  |  | 0.095 ± 0.038 | 0.399 ± 0.052 | 51.6 |  |  | 0.059 ± 0.008 | 0.455 ± 0.026 | 
Cc1ccc([N+](=O)[O-])c2c(NCCCN(C)CCCNc3ccc4ncn5c6ccccc6c(=O)c3c45)c3ccccc3nc12 [Compound C-2053] | 67.8 | 23.5% | 18.4% | ~1.7 |  |  | 0.025 ± 0.006 | 0.184 ± 0.022 | 54.1 |  |  | 0.048 ± 0.014 | 0.195 ± 0.075 | 
